We go through 17 compounds from PMC8119466, “A screen of FDA-approved drugs identifies inhibitors of protein tyrosine phosphatase 4A3 (PTP4A3 or PRL-3)” (Scientific Reports, 2021).

Molecules are shown by their SMILES. Counter-ions that a name gives are not always drawn. Like-named read-outs stand apart in the source and are kept apart here.

Holding throughout (format): biochemical
For assay [1], the target named is T1, recombinant PRL-2 (Homo sapiens, UniProt Q12974).
T1 construct: 6xHis (N, cleaved yes); made in house; host or cells: E. coli One Shot BL21 Star
T1 sequence (Q12974 1-167): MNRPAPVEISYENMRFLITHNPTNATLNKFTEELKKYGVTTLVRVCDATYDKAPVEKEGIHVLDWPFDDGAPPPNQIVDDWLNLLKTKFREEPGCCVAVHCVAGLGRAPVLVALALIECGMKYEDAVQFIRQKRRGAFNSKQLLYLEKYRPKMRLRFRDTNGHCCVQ
As to the kind of experiment: In vitro phosphatase assay (DiFMUP hydrolysis), PRL-2.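 Note: PRL-2 activity read as DiFMUP hydrolysis after 20 min at room temperature with drug, enzyme first pre-reduced at 4 °C for 20 min.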

Assay [2] has as its target T2, recombinant PRL-3 (Homo sapiens, UniProt O75365).
T2 construct: 6xHis (N, cleaved yes); made in house; host or cells: E. coli One Shot BL21 Star
As to the kind of experiment: In vitro phosphatase assay (DiFMUP hydrolysis), PRL-3. Note: test concentration or dose not given here.

In assay [3] the target is T3, recombinant PRL-1 (Homo sapiens, UniProt Q93096).
T3 construct: 6xHis (N, cleaved yes); made in house; host or cells: E. coli One Shot BL21 Star
T3 sequence (Q93096 1-173): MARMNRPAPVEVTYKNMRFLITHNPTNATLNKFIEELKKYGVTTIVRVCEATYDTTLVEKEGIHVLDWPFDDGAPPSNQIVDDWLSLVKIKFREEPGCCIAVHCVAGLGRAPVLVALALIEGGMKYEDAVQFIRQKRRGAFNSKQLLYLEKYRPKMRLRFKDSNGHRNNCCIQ
Briefly: In vitro phosphatase assay (DiFMUP hydrolysis), PRL-1. Note: test concentration or dose not given here.

Setting [4] is: FDA-approved drug screen, compared to DMSO.
The mark [5] stands for this setting: FDA-approved drug screen, activity compared to DMSO.

T2 sequence (O75365 whole entry): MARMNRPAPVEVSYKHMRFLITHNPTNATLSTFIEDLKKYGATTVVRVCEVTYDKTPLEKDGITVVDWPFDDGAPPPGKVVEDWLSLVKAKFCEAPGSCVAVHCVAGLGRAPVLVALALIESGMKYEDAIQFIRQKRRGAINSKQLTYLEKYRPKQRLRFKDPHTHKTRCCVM

For the compound `CC1(C)S[C@@H]2[C@H](NC(=O)[C@H](N)c3ccccc3)C(=O)N2[C@H]1C(=O)O` [Ampicillin Trihydrate], in assay [1] (setting [4]), the “% Phosphatase Activity (compared to DMSO) PRL-2” value turned out to be 106%. The “% Phosphatase Activity (compared to DMSO) PRL-3” value in assay [2] (setting [4]) is reported as 72%. In addition, in assay [3] (setting [4]), the “% Phosphatase Activity (compared to DMSO) PRL-1” value came out at 92%.
Consider `O=C1NC(=O)[C@@H](c2cn3c4c(cccc24)CCC3)[C@@H]1c1c[nH]c2ccccc12` [Tivantinib (ARQ 197)], for which, in assay [1] (setting [5]), the “% Phosphatase Activity (compared to DMSO) PRL-2” value was 83%. The “% Phosphatase Activity (compared to DMSO) PRL-3” value in assay [2] (setting [5]) is 90%. For the same compound, the “% Phosphatase Activity (compared to DMSO) PRL-1” value in assay [3] (setting [5]) was 95%.
For the compound `CC(=O)SCC(Cc1ccccc1)C(=O)NCC(=O)OCc1ccccc1` (stereo not drawn) [Racecadotril], the “% Phosphatase Activity (compared to DMSO) PRL-2” value in assay [1] (setting [4]) is 99%. Further, in assay [2] (setting [4]), the “% Phosphatase Activity (compared to DMSO) PRL-3” value is 76%. Besides, in assay [3] (setting [4]), the “% Phosphatase Activity (compared to DMSO) PRL-1” value is reported as 95%.
The corresponding values for `O=c1ccc2ccc(OCCCCN3CCN(c4cccc5sccc45)CC3)cc2[nH]1` [Brexpiprazole] are 115%, 92% and 97%.
The matching figures for `Cc1nc(-c2ccc(OCC(C)C)c(C#N)c2)sc1C(=O)O` [Febuxostat]: 85%, 89% and 95%.
The corresponding values for `CCOc1ccc(NC(=O)CC(C)O)cc1` (stereo not drawn) [Bucetin] are 108%, 92% and 109%.
`CC(=O)c1c(C)c2cnc(Nc3ccc(N4CCNCC4)cn3)nc2n(C2CCCC2)c1=O.Cl` [Palbociclib (PD-0332991) HCl]: the “% Phosphatase Activity (compared to DMSO) PRL-2” value in assay [1] (setting [4]) was found to be 61%. In addition, the “% Phosphatase Activity (compared to DMSO) PRL-3” value in assay [2] (setting [4]) was 102%. In assay [3] (setting [4]), the “% Phosphatase Activity (compared to DMSO) PRL-1” value is 68%.
The matching figures for `O=C(O)c1cc(/N=N/c2ccc(O)c(C(=O)O)c2)ccc1O` [Olsalazine Sodium]: 53%, 61% and 59%.
The corresponding values for `CC(/C=C1\SC(=S)N(CC(=O)O)C1=O)=C\c1ccccc1` [Epalrestat] are 17%, 74% and 40%.
Consider `CS(=O)(=O)Nc1ccc([N+](=O)[O-])cc1Oc1ccccc1` [Nimesulide], for which the “% Phosphatase Activity (compared to DMSO) PRL-2” value in assay [1] worked out at 83%. In addition, the “% Phosphatase Activity (compared to DMSO) PRL-3” value in assay [2] is reported as 85%. Also, the “% Phosphatase Activity (compared to DMSO) PRL-1” value in assay [3] stood at 78%.
Take `CN(Cc1cc(Br)cc(Br)c1N)C1CCCCC1` [Bromhexine HCl]: in assay [1] (setting [4]), the “% Phosphatase Activity (compared to DMSO) PRL-2” value stood at 122%. Further, the “% Phosphatase Activity (compared to DMSO) PRL-3” value in assay [2] (setting [4]) stood at 86%. Besides, the “% Phosphatase Activity (compared to DMSO) PRL-1” value in assay [3] (setting [4]) is 95%.
In the case of `Cc1ccc(C)c(OCCCC(C)(C)C(=O)O)c1` [Gemfibrozil], in assay [1] (setting [4]), the “% Phosphatase Activity (compared to DMSO) PRL-2” value was 95%. For the same compound, the “% Phosphatase Activity (compared to DMSO) PRL-3” value in assay [2] (setting [4]) was 76%. The “% Phosphatase Activity (compared to DMSO) PRL-1” value in assay [3] (setting [4]) is reported as 93%.
Take `COC(=O)C1=C(C)NC(C)=C(C(=O)OCCN2CCN(C(c3ccccc3)c3ccccc3)CC2)C1c1cccc([N+](=O)[O-])c1.Cl.Cl` (stereo not drawn) [Manidipine 2HCl]: the “% Phosphatase Activity (compared to DMSO) PRL-2” value in assay [1] (setting [4]) is on record as 87%. Besides, the “% Phosphatase Activity (compared to DMSO) PRL-3” value in assay [2] (setting [4]) came to 82%. The “% Phosphatase Activity (compared to DMSO) PRL-1” value in assay [3] (setting [4]) was 97%.
As to `Cn1ncc(Cl)c1-c1cc(C(=O)N[C@H](CN)Cc2ccc(F)c(F)c2)oc1Cl` [Uprosertib (GSK2141795)], the “% Phosphatase Activity (compared to DMSO) PRL-2” value in assay [1] (setting [5]) was 95%. Further, the “% Phosphatase Activity (compared to DMSO) PRL-3” value in assay [2] (setting [5]) was determined as 103%. In assay [3] (setting [5]), the “% Phosphatase Activity (compared to DMSO) PRL-1” value amounted to 95%.
Consider `CCOC(=O)c1ccc(OC(=O)CCCCCN=C(N)N)cc1.CS(=O)(=O)O` [Gabexate Mesylate], for which the “% Phosphatase Activity (compared to DMSO) PRL-2” value in assay [1] (setting [4]) came to 103%. In assay [2] (setting [4]), the “% Phosphatase Activity (compared to DMSO) PRL-3” value was determined as 80%. Moreover, the “% Phosphatase Activity (compared to DMSO) PRL-1” value in assay [3] (setting [4]) was 93%.
For `COC(=O)C1=C(C)NC(C)=C(C(=O)O[C@@H]2CCCN(Cc3ccccc3)C2)[C@@H]1c1cccc([N+](=O)[O-])c1.Cl` (racemic) [Benidipine HCl], in assay [1] (setting [4]), the “% Phosphatase Activity (compared to DMSO) PRL-2” value stood at 107%. In assay [2] (setting [4]), the “% Phosphatase Activity (compared to DMSO) PRL-3” value was found to be 94%. Further, the “% Phosphatase Activity (compared to DMSO) PRL-1” value in assay [3] (setting [4]) was 91%.
With `CC(C)(C)c1nc(-c2cccc(NS(=O)(=O)c3c(F)cccc3F)c2F)c(-c2ccnc(N)n2)s1` [Dabrafenib (GSK2118436)], the “% Phosphatase Activity (compared to DMSO) PRL-2” value in assay [1] (setting [4]) is on record as 82%. Besides, the “% Phosphatase Activity (compared to DMSO) PRL-3” value in assay [2] (setting [4]) is 86%. Further, the “% Phosphatase Activity (compared to DMSO) PRL-1” value in assay [3] (setting [4]) worked out at 81%.
